We go through seven compounds from US5420126A, “3,4-dihydro-2H-1,4-benzoxazine derivatives and pharmaceutical compositions containing the same” (Yamanouchi Pharmaceutical Co., Ltd., priority 1989, dated 1995).

Series [1] relates to cardiovascular system (mean blood pressure, coronary blood flow). Put plainly: Effects on the cardiovascular system in anesthetized dogs (i.v.). It is filed as in vivo, Mongrel dogs. As for the experimental part:
(§1) The compounds, when given intravenously, reduced the blood pressure and increased the coronary blood flow in the dose range of 1 to 1,000 μg/kg and, when administered into the coronary artery, they dilated the coronary artery in the dose range of 0.3 to 100 μg.
(2) Effects on the cardiovascular system
Mongrel dogs of either sex were anesthetized with pentobarbital, 30 mg/kg i.v. and, after tracheal intubation, the experiment was performed under artificial respiration. After thoracotomy, heart rate, blood pressure, left ventricular pressure, max dLVP/dt, pulmonary arterial pressure, central venous pressure, cardiac output and coronary blood flow were measured. The test compound was administered through a cannula indwelt in the femoral vein and the efficacy was evaluated.
(3) Coronary vasodilating effect

Series [2] deals with 3,4-diaminopyridine-induced rhythmic contractions of left coronary artery ring segments. Put plainly: Inhibition of 3,4-diaminopyridine-induced rhythmic contractions (frequency) in isolated coronary artery rings. As to conditions: Canis lupus familiaris; isolated dog coronary artery rings; 3,4-diaminopyridine 10 mM; 37° C.; read-out: IC50, inhibitory effect on the frequency of 3,4-diaminopyridine-induced rhythmic contractions. Also on record: species or system Mongrel dogs. As for the experimental part: as §1
(1) Effects on 3,4-diaminopyridine-induced rhythmic contractions
The method of Uchida and Sugimoto (Myakkangaku, 24, 133-143, 1984) was used. Mongrel dogs of either sex were anesthetized with pentobarbital (30 mg/kg i.v.) and bled to death and, then, the heart was excised from each animal. In the Krebs-Henseleit solution, the left coronary circumflex branch or the anterior descending branch was isolated and cut into rings, about 2 mm in width. The ring segment was fixed to a stainless steel hook and suspended in a Krebs-Henseleit bath (37° C.) aerated with 95%O2 -5%CO2 gas mixture under a tension load of 1.0 g, and isometric contractions were recorded.
After the specimen was stabilized for 30 minutes, rhythmic contractions were induced by addition of 3,4-diaminopyridine (10 mM). When the amplitude and frequency of rhythmic contractions became substantially steady, cumulative addition of the test compound to the organ bath was started. The concentration-response curves for the amplitude and frequency of contractions were constructed and the efficacy was evaluated.
The inhibitory effect on the frequency of contractions is shown in Column (1) in Table 1.

Series [3] in a line: Acute toxic effect (LD50), intravenous. The following applies: mouse, in vivo, i.v. (caudal vein), male mice, up and down method, read-out: LD50, acute toxic dose. As for the experimental part:
(§2) Then, in connection with Examples 1 and 2, the hypotensive effect of the test compound given orally in conscious spontaneously hypertensive rats (SHR) and the intravenous acute toxicity in mice were determined.
The acute toxic dose (LD50) of the test compound administered into the caudal vein was determined by the up and down method in male mice.

Series [4] deals with spontaneously hypertensive rats (SHR). Put plainly: Hypotensive effect, oral, in conscious spontaneously hypertensive rats (SHR). It is filed as in vivo, Spontaneously hypertensive rats (SHR) of Okamoto-Aoki strain. As for the experimental part: as §2
Spontaneously hypertensive rats (SHR) of Okamoto-Aoki strain were anesthetized with pentobarbital, 60 mg/kg i.p. Then, a cannula for blood pressure measurement was indwelt in the left common carotid artery and the other end of the cannula was led out extracorporeally from the posterior neck. After a stabilization period of 4-5 postoperative days, the blood pressure and heart rate were measured without restraint under no anesthesia. The test compound was suspended in 0.5% methylcellulose solution and the suspension was orally administered in a volume of 5 ml/kg and the efficacy was evaluated.

A word on the IC50: it is the concentration that gives 50% inhibition. Consider `CC1(C)CN(N2CCCC2=O)c2cc([N+](=O)[O-])ccc2O1` [41(4), 3,4-dihydro-2,2-dimethyl-4-(2-oxo-1-pyrrolidinyl)-6-nitro-2H-1,4-benzoxazine], for which the “MBP: mean blood pressure-lowering effect (percent reduction)” value in series [1] (3 μg/kg i.v.) is -20 Δ%. Further, the IC50 in series [2] came to 0.05 µM.
What is called LD50 is the dose expected to kill half of the subjects tested. Take `CC1(C)Oc2ccc(C#N)cc2C(N2CCCC2=O)C1O` (centres unmarked) [Cromakalim, reference compound]: the LD50 in series [3] turned out to be 49.7 mg/kg. Moreover, in series [4] (300 μg/kg p.o.), the “MBP: mean blood pressure-lowering effect” value is recorded as -35 Δ%. For the same compound, in series [1] (10 μg/kg i.v.), the “MBP: mean blood pressure-lowering effect (percent reduction)” value is on record as -28 Δ%. Besides, the IC50 in series [2] amounted to 0.39 µM.
For the compound `CC1(C)CN(c2cccc[n+]2[O-])c2cc([N+](=O)[O-])ccc2O1` [Example 1, 2-(3,4-dihydro-2,2-dimethyl-6-nitro-2H-1,4-benzoxazin-4-yl)pyridine N-oxide], in series [3], the LD50 stood at 50.4 mg/kg. Besides, the “MBP: mean blood pressure-lowering effect” value in series [4] (30 μg/kg p.o.) is given as -25 Δ%. For the same compound, in series [1] (3 μg/kg i.v.), the “MBP: mean blood pressure-lowering effect (percent reduction)” value is given as -16 Δ%. For the same compound, the IC50 in series [2] is 0.01 µM.
With `CC1(C)CN(c2cccc[n+]2[O-])c2cc(C#N)ccc2O1` [Example 2, 2-(6-cyano-3,4-dihydro-2,2-dimethyl-2H-1,4-benzoxazin-4-yl)pyridine N-oxide], in series [3], the LD50 was more than 60 mg/kg. The “MBP: mean blood pressure-lowering effect” value in series [4] (300 μg/kg p.o.) is listed as -40 Δ%. Moreover, in series [1] (10 μg/kg i.v.), the “MBP: mean blood pressure-lowering effect (percent reduction)” value is reported as -20 Δ%. Moreover, the IC50 in series [2] turned out to be 0.24 µM.
Turning to `CC(=O)CN1CC(C)(C)Oc2ccc([N+](=O)[O-])cc21` [Example 38, 4-Acetonyl-3,4-dihydro-2,2-dimethyl-6-nitro-2H-1,4-benzoxazine], the “MBP: mean blood pressure-lowering effect (percent reduction)” value in series [1] (10 μg/kg i.v.) is reported as -23 Δ%. Moreover, the IC50 in series [2] came out at 0.07 µM.
In the case of `CN(C)C(=O)CN1CC(C)(C)Oc2ccc([N+](=O)[O-])cc21` [Example 56, 2-(3,4-dihydro-2,2-dimethyl-6-nitro-2H-1,4-benzoxazin-4-yl)-N,N-dimethylacetamide], the “MBP: mean blood pressure-lowering effect (percent reduction)” value in series [1] (3 μg/kg i.v.) was -11 Δ%. The IC50 in series [2] stood at 0.02 µM.
With `CC1(C)CN(C2=CCCC2=O)c2cc([N+](=O)[O-])ccc2O1` [Example 70, 3,4-Dihydro-2,21-dimethyl-6-nitro-4-(5-oxo-1-cyclopenten-1-yl) -2H-1,4-benzoxazine], the “MBP: mean blood pressure-lowering effect (percent reduction)” value in series [1] (10 μg/kg i.v.) was -9 Δ%. The IC50 in series [2] is 0.01 µM.
